Laboratory results: paper PMC7856178 (Archives of biochemistry and biophysics, 2020)
Several values for one entry are separate records, joined by “and”; a condition that tells them apart may be missing. Equal values may be shown once. Read-outs that look alike come from different tables or passages of the source.

Assays:
CYP2E1 [1] = target: CYP2E1 (Homo sapiens, UniProt P05181); format: binding
CYP3A5 = conditions: cited from earlier work
CYP3A4 [2] = target: T1, CYP3A4 (Homo sapiens, UniProt P08684); assay: Fluorimetric assay of BQ debenzylation in intact and CYP2E1-enriched HLM
Target sequence in this assay (P08684 whole entry): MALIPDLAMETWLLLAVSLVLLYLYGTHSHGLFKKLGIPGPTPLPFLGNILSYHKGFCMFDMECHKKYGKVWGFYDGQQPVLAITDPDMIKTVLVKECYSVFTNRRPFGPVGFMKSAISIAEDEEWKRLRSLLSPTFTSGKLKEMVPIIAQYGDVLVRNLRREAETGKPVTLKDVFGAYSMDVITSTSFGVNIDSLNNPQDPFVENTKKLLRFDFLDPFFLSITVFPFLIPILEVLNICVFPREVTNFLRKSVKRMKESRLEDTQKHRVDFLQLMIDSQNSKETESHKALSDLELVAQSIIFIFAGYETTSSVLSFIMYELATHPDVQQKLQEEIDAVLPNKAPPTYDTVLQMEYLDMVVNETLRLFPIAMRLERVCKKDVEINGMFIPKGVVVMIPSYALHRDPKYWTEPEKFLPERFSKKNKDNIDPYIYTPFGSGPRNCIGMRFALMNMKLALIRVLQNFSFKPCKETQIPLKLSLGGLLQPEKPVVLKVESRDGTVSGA

CYP2E1 [3] = conditions: cited from earlier work
CYP1A2 = conditions: cited from earlier work
[4] = in vivo; cited from earlier work
CYP3A4 [5] = target: T1, CYP3A4; assay: Rate of midazolam hydroxylation by pooled HLM; conditions: 100 μM substrate; for Turnover rate (per metabolizing P450 enzyme): per CYP3A4
Target sequence in this assay (P08684 whole entry): as above

CYP3A4 [6] = conditions: prolonged exposure; HepG2 cells; cited from earlier work
CYP3A4 [7] = conditions: prolonged exposure; human hepatocytes; cited from earlier work
CYP2C19 = conditions: cited from earlier work
CYP3A4 [8] = target: T1, CYP3A4; format: binding; conditions: SS(3A4) in the presence of 25 μM ANF
Target sequence in this assay (P08684 2-503 limits assumed): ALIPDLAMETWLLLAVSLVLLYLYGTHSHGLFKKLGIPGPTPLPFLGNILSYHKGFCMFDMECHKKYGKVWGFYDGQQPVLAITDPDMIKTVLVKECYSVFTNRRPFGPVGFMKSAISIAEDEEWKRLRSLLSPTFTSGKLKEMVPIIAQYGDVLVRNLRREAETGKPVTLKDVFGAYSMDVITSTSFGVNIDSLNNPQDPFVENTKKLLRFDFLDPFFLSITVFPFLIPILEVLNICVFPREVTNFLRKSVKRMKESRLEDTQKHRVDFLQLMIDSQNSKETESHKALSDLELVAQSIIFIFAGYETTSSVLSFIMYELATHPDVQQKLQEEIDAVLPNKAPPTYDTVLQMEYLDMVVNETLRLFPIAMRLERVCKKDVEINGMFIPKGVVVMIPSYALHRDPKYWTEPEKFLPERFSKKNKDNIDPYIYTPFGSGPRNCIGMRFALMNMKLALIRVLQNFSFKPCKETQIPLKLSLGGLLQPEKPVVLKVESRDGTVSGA

[9] = 25 μM ANF, all four HLM samples

Compound: O[C@@H](CS)[C@@H](O)CS (racemic) [DTT, dithiothreitol]
- Kd (CYP2E1 [1]): 10.4 mM

Compound: c1ccc(COc2ccc3cccnc3c2)cc1 [BQ, 7-benzyloxyquinoline]
- Turnover number with BQ, times lower than that of CYP3A4 (CYP3A5): 4.3 times
- N (Hill coefficient) (CYP3A4 [2]; HLM-A+2E1 (1:1 CYP2E1-enriched), +25 μM ANF): 0.85 ± 0.26 (0.03)
- N (Hill coefficient) (CYP3A4 [2]; HLM-A+2E1 (1:1 CYP2E1-enriched), no effector): 1.47 ± 0.30 (0.30)
- N (Hill coefficient) (CYP3A4 [2]; HLM-A, +25 μM ANF): 0.99 ± 0.20 (0.03)
- N (Hill coefficient) (CYP3A4 [2]; HLM-A, no effector): 1.02 ± 0.15
- N (Hill coefficient) (CYP3A4 [2]; HLM-N1+2E1 (1:1 CYP2E1-enriched), +25 μM ANF): 0.87 ± 0.16 (0.02)
- N (Hill coefficient) (CYP3A4 [2]; HLM-N1+2E1 (1:1 CYP2E1-enriched), no effector): 1.26 ± 0.12 (0.01)
- N (Hill coefficient) (CYP3A4 [2]; HLM-N1, +25 μM ANF): 0.83 ± 0.12 (<10^−2)
- N (Hill coefficient) (CYP3A4 [2]; HLM-N1, no effector): 2.24 ± 0.37
- N (Hill coefficient) (CYP3A4 [2]; HLM-N2+2E1 (1:1 CYP2E1-enriched), +25 μM ANF): 0.86 ± 0.08 (<10^−2)
- N (Hill coefficient) (CYP3A4 [2]; HLM-N2+2E1 (1:1 CYP2E1-enriched), no effector): 1.13 ± 0.03 (<10^−6)
- N (Hill coefficient) (CYP3A4 [2]; HLM-N2, +25 μM ANF): 1.02 ± 0.37 (0.01)
- N (Hill coefficient) (CYP3A4 [2]; HLM-N2, no effector): 1.92 ± 0.02
- Vmax, times lower than that of HLM-A (CYP3A4 [2]; HLM-N2, no effector): 2.2 times
- N (Hill coefficient) (CYP3A4 [2]; HLM-N3+2E1 (1:1 CYP2E1-enriched), +25 μM ANF): 1.02 ± 0.24 (0.07)
- N (Hill coefficient) (CYP3A4 [2]; HLM-N3+2E1 (1:1 CYP2E1-enriched), no effector): 1.28 ± 0.09 (0.01)
- N (Hill coefficient) (CYP3A4 [2]; HLM-N3, +25 μM ANF): 1.22 ± 0.30 (0.03)
- N (Hill coefficient) (CYP3A4 [2]; HLM-N3, no effector): 2.09 ± 0.44
- Vmax, times lower than that of HLM-A (CYP3A4 [2]; HLM-N3, no effector): 1.4 times
- Hill coefficient (CYP3A4 [2]; all three samples of HLM-N, no effector): 1.9 – 2.2
- Vmax of HLM-A relative to HLM-N1 (CYP3A4 [2]; no effector): over six times higher
- Ability of CYP2E1 to metabolize BQ (CYP2E1 [3]): lacks any potential to metabolize this substrate
- Turnover number with BQ, times lower than that of CYP3A4 (CYP1A2): 8.5 times

Compound: C[C@H]1c2cccc(O)c2C(O)=C2C(=O)[C@]3(O)C(O)=C(C(N)=O)C(=O)[C@@H](N(C)C)[C@@H]3[C@@H](O)[C@@H]21 [doxycyclin]
- Rate of metabolism under the influence of chronic alcohol exposure [4]: increased rate of metabolism

Compound: Cc1ncc2n1-c1ccc(Cl)cc1C(c1ccccc1F)=NC2 [Midazolam]
- Turnover rate (per CPR) (CYP3A4 [5]; HLM-A): 11.2 ± 5.3 min⁻¹
- Turnover rate (per metabolizing P450 enzyme) (CYP3A4 [5]; HLM-A): 6.8 ± 3.2 min⁻¹
- Turnover rate (per CPR) (CYP3A4 [5]; HLM-N2): 7.3 ± 2.1 min⁻¹
- Turnover rate (per metabolizing P450 enzyme) (CYP3A4 [5]; HLM-N2): 3.3 ± 0.9 min⁻¹
- Turnover rate (per CPR) (CYP3A4 [5]; HLM-N3): 8.2 ± 4.0 min⁻¹
- Turnover rate (per metabolizing P450 enzyme) (CYP3A4 [5]; HLM-N3): 3.1 ± 1.5 min⁻¹

Compound: CCO [ethanol]
- Concentration of ethanol giving a noticeable elevation in the CYP3A4 content (CYP3A4 [6]): ≥ 50000 µM
- Concentration of ethanol giving a noticeable elevation in the CYP3A4 content (CYP3A4 [7]): ≥ 50000 µM

Compound: CN(C)CCC=C1c2ccccc2CCc2ccccc21 [Amitriptyline]
- Km (CYP2C19): ~14 µM

Compound: O=c1cc(-c2ccccc2)oc2c1ccc1ccccc12 [ANF, 7,8-benzoflavone]
- Effect of ANF on Vmax of BQ metabolism (CYP3A4 [2]; 25 μM ANF, HLM-A): no statistically significant effect
- Effect of ANF on the maximal rate of BQ metabolism (CYP3A4 [2]; 25 μM ANF, HLM-N1): increased the maximal rate of reaction almost two times
- Effect of ANF on Vmax of BQ metabolism (CYP3A4 [2]; 25 μM ANF, HLM-N2): no statistically significant effect
- Effect of ANF on the maximal rate of BQ metabolism (CYP3A4 [2]; 25 μM ANF, HLM-N3): over two-fold inhibition
- Effect of ANF on S50 values of BQ (CYP3A4 [2]; [9]): considerably decreased the S50 values
- Effect of ANF on homotropic cooperativity observed with BQ (CYP3A4 [2]; [9]): eliminated homotropic cooperativity
- (Lipid/CYP2E1)50% (CYP3A4 [8]; calculated from [CYP2E1]50%): 604 and 604 ± 62
- FRET Efficiency (CYP3A4 [8]; from Rmax by Eq. 4): 84 ± 20%
